Patent US20060025449A1, “Use of N-substituted imino sugars for appetite suppression” (priority 2004, published 2006)

Tests used:
[1] = test system: ob/ob mice; experiment: Long-term dietary dosing of obese mice, growth curves; format: in vivo, mouse; conditions: 2400 mg/kg/d in diet
Protocol: Control C57B1/6 and C57BL/6O1aHsd-Lep ob mice were obtained from Harlan, UK at five weeks of age. The mice were housed under standard non-sterile conditions and fed a diet of mouse chow pelleted or expanded ground RM1 diet (SDS Ltd, Witham, Essex) with water available ad libitum. For dietary treatment of the mice with NB-DNJ or NB-DGJ, the diet and compound were admixed thoroughly as dry solids, stored at room temperature and used within 7 days. Unless indicated otherwise, mice were treated with a dose of 2400 mg/kg body weight per day, assuming an intake of around 5 g diet/day. Mice were maintained on diet with or without compound for up to six months of age and were weighed at regular intervals during the course of the experiment (see figure legends for group sizes and further experimental details). To study the effect of compound on obese mice, three groups (n=5) of ob/ob mice were monitored from five weeks of age. One group acted as control and were fed ground RM1 diet. […] All mice were then monitored for up to six months of age. Leptin deficient ob/ob mice are widely used as an animal model of obesity and weigh more than twice as much as a normal mouse, even when fed the same diet. The mice have as much as a five-fold increase in fat content, are hyperphagic, hypothermic, have decreased energy expenditure and are unusually efficient at converting metabolic fuels into fat. Friedman & Halas, Nature 395, 763-70 (1998). These mice were used to investigate the effect of NB-DNJ. […] As NB-DNJ was so effective at reducing white adipose tissue in normal mice, a study was performed to discover if a similar effect would occur in obese mice. […] The control obese mice grew from just over 20 g at five weeks old to about 60 g at six months of age whereas the lean controls had reached about 27 g at the same age. The group of obese mice started on NB-DNJ treatment at 7 weeks old grew at a very much reduced rate and weighed 35 g after six months (40% less than their control littermates). […]

[2] = test system: C57B1/6 mice; experiment: Skin histology/thickness and gross dissection for white adipose tissue; format: in vivo, mouse
Protocol: Six week-old control mice on a normal diet or treated with 2400 mg/kg/day NB-DNJ for four weeks (n=3 in each group), were sacrificed and hair removed by shaving followed by application of a depilatory cream. A small section of skin was excised from the same area of the back of each mouse and processed for histology. After excision, the skin was put into mini histology trays containing OCT compound (BDH Laboratory Supplies, UK) and frozen for cryo-sectioning. Cryosections (10 μm thickness) of skin were then fixed in ice-cold acetone for 30 sec and rinsed under running tap water for 1 minute before dipping briefly in Mayer's haemotoxylin (Sigma, UK). The sections were dehydrated through a rising ethanol concentration series of 70%, 80%, 95%, 100% before clearing with Histo-Clear Histological Clearing agent (National Diagnostics, […], Hull, UK) twice for 5 min. Finally, the sections of skin were mounted with cover slips and DePeX mounting medium (BDH Laboratory Supplies, UK) on glass microscope slides. Another portion of skin (5 mm^2) was taken from each mouse, placed on a microscope slide and skin thickness measured using a micrometer gauge. […] Also, after complete depilation, this group of mice had transparent skin making the visceral organs, ventrally, and the kidneys and spinal vertebrae, dorsally, clearly visible in contrast to the opaque, non-transparent skin of controls. […]

[3] = test system: C57B1/6 mice; conditions: Platt et al.; cited from earlier work
[4] = test system: male C57B1/6 mice; experiment: Epididymal fat pad weight, dose-response; format: in vivo, mouse
Protocol: A dose-response relationship for the effect of increasing concentrations of NB-DNJ on adipose tissue in male C57B1/6 mice was determined by treating with doses ranging from 15 to 2400 mg/kg/day for 5 weeks. Mice were sacrificed and their epididymal fat pads excised and weighed. The results are expressed as a ratio of epididymal pad fat mass to total body weight.

[5] = test system: C57B1/6 mice; format: in vivo, mouse
Protocol: Growth rates of control and NB-DNJ-treated mice were analysed statistically by univariate analysis of variance (ANOVA) using SPSS software to compare slopes of growth from 54 to 174 days of age.
The effect of NB-DNJ on lean body mass growth was also assessed by measuring tibia lengths in a group of 20 control mice at one year old, 5 mice at 2 years old and two mice 19.5 months old after 18 months on 2400 mg/kg/day. Tibias were dissected from both hind-limbs then boiled in distilled water for 20 min to clean the bone of remaining connective tissue and muscle. Tibia length was then measured using calipers.
It can also be seen (FIG. 4) that the control mice lost weight over the first two weeks of treatment and then started to grow again, and continued to gain weight for the remainder of the study. […] Growth in both groups of mice as measured by the gradient of the line is similar and the data were analysed by univariate analysis of variance (ANOVA) to compare the slopes of growth statistically.
To establish further, whether NB-DNJ has an effect on lean growth of mice tibia lengths were measured in a large (n=20) group of control mice at one year of age, a smaller group (n=5) at two years of age and a comparison was made with two mice treated with NB-DNJ for 18 months.

lean mass ([5]; admixed with diet, lean mice): did not have any reduction in lean mass
tibia lengths ([5]; two mice treated for 18 months, 2400 mg/kg/day): within the normal range
Structure (SMILES): CCCCN1C[C@H](O)[C@@H](O)[C@H](O)[C@H]1CO [NB-DNJ, N-butyldeoxynojirimycin]
body weight of obese mice after six months ([1]; started at 7 weeks old): 35 g
weight less than control littermates ([1]; started at 7 weeks old, after six months): 40%
weight at which obese mice stabilised after losing weight ([1]; started at 12 weeks old, over three months): less than 40 g
white adipose tissue on gross dissection ([2]; 2400 mg/kg/day): significant depletion of white adipose tissue
reduction in mouse skin thickness ([2]; 2400 mg/kg/day for four weeks, six week-old mice): 40%
dose at which a well-defined effect on total body weight has been seen [3]: ≥ 600 mg/kg/day
lowest dose at which a reduction in fat pad weight is apparent ([4]; 5 weeks treatment, doses 15 to 2400 mg/kg/day): 15 mg/kg/day
epididymal fat pad mass to total body weight ([4]; five weeks treatment, 15 to 2400 mg/kg/day): clear dose-related response
weighing less than control counterparts after original weight loss ([5]; 2400 mg/kg/d in diet): 4 g
